The values that follow come from ChEMBL document CHEMBL1147719, “Two novel aromatic valerenane-type sesquiterpenes from the Chinese green alga Caulerpa taxifolia” (Bioorg Med Chem Lett, 2006).

For the assay, the target named is T1, Tyrosine-protein phosphatase non-receptor type 1 (Homo sapiens, UniProt P18031).
T1 sequence (P18031 whole entry): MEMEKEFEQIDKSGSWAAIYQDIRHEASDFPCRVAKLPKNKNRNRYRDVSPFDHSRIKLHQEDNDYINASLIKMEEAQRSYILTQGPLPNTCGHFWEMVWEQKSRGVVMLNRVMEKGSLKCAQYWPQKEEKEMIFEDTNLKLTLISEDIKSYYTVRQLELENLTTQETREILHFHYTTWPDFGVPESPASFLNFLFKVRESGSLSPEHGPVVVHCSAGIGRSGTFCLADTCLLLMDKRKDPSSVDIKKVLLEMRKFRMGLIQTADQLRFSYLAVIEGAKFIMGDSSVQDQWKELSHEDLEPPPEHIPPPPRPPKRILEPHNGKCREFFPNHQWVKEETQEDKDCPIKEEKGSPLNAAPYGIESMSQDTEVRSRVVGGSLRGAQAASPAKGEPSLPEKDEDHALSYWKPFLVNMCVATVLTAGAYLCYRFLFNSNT
Kind of assay: Inhibition of human PTP1B.

In general, IC50 refers to the concentration at which inhibition is half-maximal. A high value points to weaker potency in that assay. Regarding `COC(=O)/C1=C/c2c([nH]c3ccccc23)/C(C(=O)OC)=C\c2c1[nH]c1ccccc21` [CAULERPIN], half-maximal inhibition (IC50) was put at 3.77 µM.
